Data as given in patent US20150359794A1, “IMPAIRMENT OF THE LARGE RIBOSOMAL SUBUNIT PROTEIN RPL24 BY DEPLETION OR ACETYLATION” (Buck Institute for Research on Aging, priority 2014, published 2015).

Key:
ribosomal protein = assay: Acetyl-lysine western blot of ribopellets (ribosomal protein acetylation); assay type: cell-based, human; conditions: SKBR3 cells
Method: Previous studies have shown that pan-inhibitors of class I and II histone deacetylases, like TSA, can rapidly destabilize a number of oncogenic transcripts including HER2 in a cycloheximide-dependent manner (FIG. 9). […] Thus, SKBR3 cells were treated with TSA to evaluate polysome protein acetylation and determine if, similar to RPL24 depletion, histone deacetylase inhibition can affect ribosome assembly dynamics. To detect early (2 h) ribosome or polysome acetylation following histone deacetylase inhibition treatment (1 μM TSA), SKBR3 polysomes were isolated using a discontinuous sucrose gradient as previously described. […] Mass spectrometry studies indicate that 15 ribosomal proteins, 11 large subunit proteins (RPL24 included) and 4 small subunit proteins, underwent at least a two-fold induction in acetylation following 2 h or 6 h TSA treatment (1 μM) (FIG. 4b, FIG. 10a-q).
Like TSA, the HDAC6 (class IIb)-selective inhibitors, Tubacin and Compound 101, as well as HDAC6 siRNA, all induce tubulin acetylation as expected as well as ribosomal protein acetylation, including the band that co-migrates with RPL24 (FIG. 4c,d, indicated by arrows). […] Thus, the tubulin acetylating effects of pan-histone deacetylase inhibition, known to be mediated by inhibition or knockdown of HDAC6, correspond to the observed ribosome and RPL24 acetylation responses induced by TSA.
Cells are lysed in RIPA buffer (10 mM Tris-HCL (pH 8.0), 1 mM EDTA, 0.5 mM EGTA, 1% triton X-100, 0.1% sodium deoxycholate, 0.1% SDS, 140 mM NaCl, 20 mM NaF, Complete EDTA-free protease inhibitor tablets (Roche Diagnostics Corp., Basel, Switzerland) and the phosphatase inhibitor cocktail PhosSTOP (Roche)), the latter two as indicated by the manufacturer's protocol. Equal amounts of protein are diluted in 2× sample buffer. Immunoblots on PVDF (Polyvinyldene Fluoride) membranes are blocked with nonfat milk in tris-buffered saline with 0.05% tween-20 (TBST). The following antibodies are incubated with membranes in 5% nonfat milk in TBST: RPL24 (Proteintech, Chicago, Ill.), Cyclin D1, Rack1, RPL4 (Santa Cruz Biotechnology, Santa Cruz, Calif.), NBS1, GAPDH (EMD Millipore Corporation, Chicago, Ill.), Survivin, β-tubulin, acetyl-lysine, eIF6, acetyl-H2B, H2B, (Cell Signaling Technology, Boston, Mass.), acetyl-tubulin, tubulin (Sigma Aldrich (St. Louis, Mo.))
Cells, plated at […] confluency, are treated as indicated. After treatment, cells are treated with 50 μg/ml cycloheximide for 15 minutes. Cells are lysed with a buffer containing 10 mM HEPES, 10 mM KCl, 75 mM NaCl, 10 mM MgCl2, 0.35% NP40, pH 7.9 supplemented with Complete EDTA-free protease inhibitor tablets, PhosSTOP phosphatase inhibitor tablets (Roche) per manufacturer's instructions, 50 μg/ml cycloheximide, SUPERase RNase inhibitors (Life Technologies) per manufacturer's instructions, 15 μM TSA, and 5 mM nicotinimide to inhibit histone deacetylases. Supernatants are collected as cytoplasmic preparations. Where indicated, pellets containing nuclei are resuspended in RIPA buffer (described above). The suspension is spun at 13,000 rpm for 5 min and supernatants are collected as nuclear preparations.
Ribosomes are subsequently isolated from cytoplasmic preparations as described previously. Briefly, lysates are layered on top of a 12% and 33% discontinuous sucrose gradient and spun at 38,000 rpm for 2 h. The resulting polysome pellet is then resuspended, stripped of RNA with acetic acid, and then pelleted with acetone. The pellet is then resuspended in 8 M urea, 2% CHAPS, and 25 mM dithiothreitol (DTT).
FIG. 4: Ribosomal protein acetylation is induced by histone deacetylase inhibition. (a-c) SKBR3 cells were treated with the indicated drugs for the indicated period of time. (d) SKBR3 cells were transfected with the indicated siRNAs and allowed to incubate for 72 hours. (a, c, d). The indicated western blots were performed in ribopellets, total cytoplasmic lysates, or nuclear extracts. […]

SKBR3 cells = assay: Polysome profiling and western blot of 60S fractions; assay type: cell-based, human; conditions: TSA 1 μM, 2 h
Method: Since RPL24 depletion decreased the levels of three cap-dependently translated proteins, the impact of RPL24 knockdown on overall ribosome and polysome formation in these cells was evaluated. Polysome profiling, which utilizes continuous sucrose gradient fractionation to separate free 40S and 60S ribosomal subunits, 80S ribosomes, and polysomes (two or more ribosomes on one mRNA) was used. […] This observed increase in 40S and 60S subunits relative to 80S ribosomes implies a defect in 40S-60S joining induced by the RPL24 knockdown. Since eIF6 bound to the pre-60S subunit prevents joining of the 40S and 60S subunits and occurs adjacent to RPL24 on 60S (FIG. 3c), immunoblotting on all 60S-containing polysome fractions to evaluate the impact of RPL24 knockdown on eIF6 retention was performed. […] Associated with the observed 60S loss of RPL24 was a striking increase in 60S-associated eIF6 (FIG. 3d). To rule out the possibility that the observed 60S retention of eIF6 might be a false-positive or non-specific artifact of lentiviral expressed RPL24 shRNA, a functionally deficient truncation mutant of RPL24 that eliminates the last 17 amino acids was overexpressed. Polysome profiling of 293T cells expressing intact versus truncated RPL24 protein confirmed that truncated RPL24 can induce 60S retention of eIF6 (FIG. 8).
Polysome profiles to separate the 40S, 60S, 80S and polysomes are carried out by layering cell lysates over a continuous 10-50% sucrose gradient and spun at 38,000 rpm for 2 h as previously described. Fractions are collected using a Retriever 500 fraction collector with a UV (UA6) detector (ISCO Teledyne (Lincoln, Nebr.)).
FIG. 3: RPL24 knockdown reduces 80S and polysome assembly while increasing 60S retention of eIF6. […] (a) Western blots using the indicated antibodies were performed on total cell lysates to assess knockdown efficiency. (b) Lysates were applied to a continuous sucrose gradient (10-50%) and ultracentrifugation followed by fractionation was performed to separate ribosomal subunits and polysomes. […]

## CC(/C=C/C(=O)NO)=C\[C@@H](C)C(=O)c1ccc(N(C)C)cc1 [TSA, trichostatin-A]
Ribosomal protein; 1 μM TSA, 2 h, western blot
  acetyl-lysine protein bands in polysomes, including band co-migrating with RPL24: several TSA-induced bands
  total RPL24 levels: not altered
Ribosomal protein; western blot of ribopellets (FIG. 4c,d)
  ribosomal protein acetylation, including the band that co-migrates with RPL24: induce
SKBR3 cells
  60S RPL24 levels: without reducing
  60S retention of eIF6: increasing
  80S and polysome assembly: reduced
